A value given as a limit tells only on which side of the number the result lay.

One assay has as its system monocistronic NK5.1 HCV replicon in Huh7 cells. The assay can be described thus: HCV replicon assay, monocistronic replicon cell line. It counts as cell-based, hepatitis C virus. Conditions: Hepatitis C virus, Huh-7, 72 h; Table 1; monocistronic replicon in Huh7 cells, 3 days incubation, HCV RNA/GAPDH RNA by TaqMan RT-PCR; read-out: Mono EC50 Median. The method in brief:
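EC50 derives from the HCV RNA/GAPDH RNA ratio by one-step TaqMan RT-PCR, relative to DMSO-only wells. Compounds (six half-log concentrations, 0.6% DMSO) were incubated 3 days at 37 °C with NK5.1 monocistronic replicon Huh7 cells plated a day earlier.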
(Replicon systems follow genome replication, usually without infectious particles.)
In the case of `Cc1cccnc1-c1noc(-c2cc(Cl)ccc2O)n1` [Compound 186, 4-Chloro-2-[3-(3-methyl-pyridin-2-yl)-[1,2,4]oxadiazol-5-yl]-phenol], the 50% effective concentration (EC50) was 3.9 µM.

For `COc1ccc(-c2ccnn2-c2ncccc2C(F)(F)F)c(F)c1` [Compound 52, 2-[5-(2-Fluoro-4-methoxy-phenyl)-pyrazol-1-yl]-3-trifluoromethyl-pyridine], the EC50 was 2.1 µM.

Regarding `Cc1cc(-c2ccc3ccccc3c2O)nn1-c1ccccc1[N+](=O)[O-]` [Compound 12, 2-[5-Methyl-1-(2-nitro-phenyl)-1H-pyrazol-3-yl]-naphthalen-1-ol], the concentration giving a half-maximal response (EC50) worked out at 13 µM.

Turning to `COc1ccc(O)c(-c2nc(-c3ccc(C(F)(F)F)cn3)no2)c1` [Compound 224, 4-Methoxy-2-[3-(5-trifluoromethyl-pyridin-2-yl)-[1,2,4]oxadiazol-5-yl]-phenol], the EC50 worked out at 3.2 µM.

For the molecule `Cc1cccnc1-c1noc(-c2cccc([N+](=O)[O-])c2)n1` [Compound 181], the EC50 was more than 32 µM.

As to `COc1ccc(OCc2ccccc2)c(-c2ccnn2-c2ccccn2)c1` [Compound 83, 2-[5-(2-Benzvloxy-5-methoxy-phenyl)-pvrazol-1-yl]-pyridine], the half-maximal effective concentration (EC50) came out at 31 µM.

As for `CC(C)(C)OC(=O)Nc1ccc(-c2noc(-c3cc(Br)ccc3O)n2)nc1` [Compound 244, {6-[5-(5-Bromo-2-hydroxy-phenyl)-[1,2,4]oxadiazol-3-yl]-pyridin-3-yl}-carbamic acid tert-butyl ester], the EC50 was determined as 7.3 µM.

For `O=[N+]([O-])c1cccc(-c2nc(-c3ccccn3)no2)c1` [Compound 148, 2-[5-(3-Nitro-phenyl)-[1,2,4]oxadiazol-3-yl]-pyridine], the EC50 is more than 19 µM.

Take `CCCNC(=O)c1cc(-c2ccc3ccccc3c2)nn1-c1ccccn1` [Compound 71, 5-Naphthalen-2-yl-2-pyridin-2-yl-2H-pyrazole-3-carboxylic acid propylamide]: the EC50 was 21 µM.

With `COc1ccc(O)c(-c2ccn(Cc3ncc(C)c(OC)c3C)n2)c1` [Compound 101, 4-Methoxy-2-[1-(4-methoxy-3,5-dimethyl-pyridin-2-ylmethyl)-1H-pyrazol-3-yl]-phenol], the EC50 turned out to be 14.6 µM.

As to `Cc1cc(-c2c(O)ccc3ccccc23)nn1-c1ncc(C(F)(F)F)cc1Cl` [Compound 20, 1-[1-(3-Chloro-5-trifluoromethyl-pyridin-2-yl)-5-methyl-1H-pyrazol-3-yl]-naphthalen-2-ol], the half-maximal effective concentration (EC50) was 13 µM.

Consider `COc1cccc(O)c1-c1nc(-c2ncccc2C)no1` [Compound 241, 3-Methoxy-2-[3-(3-methyl-pyridin-2-yl)-[1,2,4]oxadiazol-5-yl]-phenol], for which the half-maximal effective concentration (EC50) is more than 10 µM.

Regarding `COc1ccc(-c2ccn(-c3ncccc3C(F)(F)F)n2)c(O)c1` [Compound 89, 5-Methoxy-2-[1-(3-trifluoromethyl-pyridin-2-yl)-1H-pyrazol-3-yl]-phenol], the EC50 is 8.8 µM.

As to `O=[N+]([O-])c1cccnc1-c1noc(-c2cccc3ccccc23)n1` [Compound 157, 2-(5-Naphthalen-1-yl-[1,2,4]oxadiazol-3-yl)-3-nitro-pyridine], the EC50 is 4.7 µM.

As to `O=C(O)c1cc(-c2ccc3ccccc3c2)nn1-c1ncccc1C(F)(F)F` [Compound 78, 5-Naphthalen-2-yl-2-(3-trifluoromethyl-pyridin-2-yl)-2H-pyrazole-3-carboxylic acid], the EC50 is more than 32 µM.

On to `Oc1ccc(O)c(-c2nc(-c3ccc(C(F)(F)F)cn3)no2)c1` [Compound 217, 2-[3-(5-Trifluoromethyl-pyridin-2-yl)-[1,2,4]oxadiazol-5-yl]-benzene-1,4-diol], for which the EC50 is 2.1 µM.

The assay is the same for the next values; noted with them: Hepatitis C virus, Huh-7, 72 h; table T3 (compounds 471-640); monocistronic replicon in Huh7 cells, 3 days incubation, HCV RNA/GAPDH RNA by TaqMan RT-PCR; read-out: Mono EC50 Median.
Turning to `Oc1ccccc1-c1nc(-c2ncccc2C(F)(F)F)n[nH]1` [Compound 542, 2-[5-(3-trifluoromethyl-pyridin-2-yl)-2H-[1,2,4]triazol-3-yl]-phenol], the concentration giving a half-maximal response (EC50) was more than 19 µM.

For the molecule `Cc1ccc(O)c(-c2nc(-c3ccc(C(F)(F)F)cn3)n[nH]2)c1` [Compound 516, 4-Methyl-2-[5-(5-trifluoromethyl-pyridin-2-yl)-2H-[1,2,4]triazol-3-yl]-phenol], the half-maximal effective concentration (EC50) was more than 19 µM.

Consider `Cn1nc(-c2ccccn2)nc1-c1cc(O)ccc1O` [Compound 604, 4-Hydroxy-2-(2-methyl-5-pyridin-2-yl-2H-[1,2,4]triazol-3-yl)-phenol], for which the concentration giving a half-maximal response (EC50) was found to be 37.6 µM.

As to `c1ccc(-c2ncn(-c3ccccn3)n2)cc1` [Compound 628, 2-(3-Phenyl-[1,2,4]triazol-1-yl)-pyridine], the EC50 was more than 32 µM.

Take `Fc1cccc(F)c1-c1nc(-c2cnccc2C(F)(F)F)n[nH]1` [Compound 478, 3-[5-(2,6-Difluoro-phenyl)-1H-[1,2,4]triazol-3-yl]-4-trifluoromethyl-pyridine]: the concentration for a half-maximal effect (EC50) is more than 32 µM.

For `CC(C)(C)c1ccc(O)c(-c2nc(-c3ncccn3)n[nH]2)c1` [Compound 559, 4-tert-Butyl-2-(5-pyrimidin-2-yl-2H-[1,2,4]triazol-3-yl)-phenol], the EC50 is more than 32 µM.

Turning to `COc1ccc(O)c(-c2nc(-c3ncccc3C)nn2C)c1` [Compound 609, 4-Methoxy-2-[2-methyl-5-(3-methyl-pyridin-2-yl)-2H-[1,2,4]triazol-3-yl]-phenol], the EC50 was determined as 17 µM.

`CCOc1cccc(-c2nc(-c3ncccn3)n[nH]2)c1O` [Compound 564, 6-Ethoxy-2-(5-pyrimidin-2-yl-2H-[1,2,4]triazol-3-yl)-phenol]: the EC50 was more than 32 µM.

`Cn1nc(-c2ccccn2)nc1-c1cc(Cl)cc(Cl)c1O` [Compound 625, 4,6-Dichloro-2-(2-methyl-5-pyridin-2-yl-2H-[1,2,4]triazol-3-yl)-phenol]: the EC50 worked out at 3.2 µM.

As to `O=[N+]([O-])c1cccc(-c2nc(-c3ncccc3Br)n[nH]2)c1` [Compound 497, 3-Bromo-2-[5-(3-nitro-phenyl)-1H-[1,2,4]triazol-3-yl]-pyridine], the 50% effective concentration (EC50) is more than 32 µM.

In the case of `Cn1nc(-c2ccccn2)nc1-c1cc(Br)cc(Br)c1O` [Compound 626, 4,6-Dibromo-2-(2-methyl-5-pyridin-2-yl-2H-[1,2,4]triazol-3-yl)-phenol], the 50% effective concentration (EC50) stood at 4.8 µM.

Consider `COc1cccc(-c2nc(-c3ncccn3)n[nH]2)c1O` [Compound 570, 6-Methoxy-2-(5-pyrimidin-2-yl-2H-[1,2,4]triazol-3-yl)-phenol], for which the concentration giving a half-maximal response (EC50) was more than 32 µM.

As to `Fc1cc(-c2nc(-c3ccc(C(F)(F)F)cn3)n[nH]2)ccc1-c1ccccc1` [Compound 514, 2-[5-(2-Fluoro-biphenyl-4-yl)-1H-[1,2,4]triazol-3-yl]-5-trifluoromethyl-pyridine], the half-maximal effective concentration (EC50) was more than 19 µM.

With `Oc1cc(OCc2ccccc2)ccc1-c1nc(-c2ncccn2)n[nH]1` [Compound 565, 5-Benzyloxy-2-(5-pyrimidin-2-yl-2H-[1,2,4]triazol-3-yl)-phenol], the EC50 came out at 26 µM.

Consider `COc1ccc(O)c(-c2nc(-c3cnccn3)n[nH]2)c1` [Compound 578, 4-Methoxy-2-(5-pyrazin-2-yl-2H-[1,2,4]triazol-3-yl)-phenol], for which the EC50 is more than 32 µM.

Still in this assay, the particulars now being: Hepatitis C virus, Huh-7; monocistronic NK5.1 HCV replicon in Huh7 cells; median value; read-out: Mono EC50 Median.
Take `Oc1ccccc1-c1nnc(-c2ncccc2C(F)(F)F)o1` [Compound 342, 2-[5-(3-Trifluoromethyl-pyridin-2-yl)-[1,3,4]oxadiazol-2-yl]-phenol]: the EC50 was more than 32 µM.

For `Cc1ccc(O)c(-c2nc(-c3ccoc3)no2)c1` [Compound 284, 2-(3-Furan-3-yl-[1,2,4]oxadiazol-5-yl)-4-methyl-phenol], the EC50 came to 17 µM.

Consider `Oc1ccc(F)cc1-c1nc(-c2nccc3ccccc23)n[nH]1` [Compound 369, 4-Fluoro-2-(5-isoquinolin-1-yl-2H-[1,2,4]triazol-3-yl)-phenol], for which the EC50 stood at 3.5 µM.

For the molecule `COc1ccc(O)c(-c2nc(-c3ccc(C(F)(F)F)cn3)no2)c1` [Compound 224, 4-Methoxy-2-[3-(5-trifluoromethyl-pyridin-2-yl)-[1,2,4]oxadiazol-5-yl]-phenol], the EC50 turned out to be 3.2 µM.

Take `Brc1cccc(-c2nc(-c3ccccn3)n[nH]2)c1` [Compound 432, 2-[5-(3-Bromo-phenyl)-1H-[1,2,4]triazol-3-yl]-pyridine]: the EC50 was 19 µM.

With `CCN(CC)c1ccc(-c2nc(-c3cnccc3C(F)(F)F)n[nH]2)c(O)c1` [Compound 424, 5-Diethylamino-2-[5-(4-trifluoromethyl-pyridin-3-yl)-2H-[1,2,4]triazol-3-yl]-phenol], the EC50 is more than 3.2 µM.

Regarding `O=[N+]([O-])c1ccccc1-c1nnc(-c2ccccc2O)o1` [Compound 321, 2-[5-(2-Nitro-phenyl)-[1,3,4]oxadiazol-2-yl]-phenol], the concentration giving a half-maximal response (EC50) was more than 32 µM.

Regarding `CC(C)(C)OC(=O)Nc1ccc(-c2noc(-c3cc(Br)ccc3O)n2)nc1` [Compound 244, {6-[5-(5-Bromo-2-hydroxy-phenyl)-[1,2,4]oxadiazol-3-yl]-pyridin-3-yl}-carbamic acid tert-butyl ester], the EC50 is 7.3 µM.

As to `Cc1cccc(-c2n[nH]c(-c3c(O)ccc4ccccc34)n2)n1` [Compound 409, 1-(5-(6-methyl-pyridin-2-yl)-2H-[1,2,4]triazol-3-yl)-naphthalen-2-ol], the concentration giving a half-maximal response (EC50) is more than 19 µM.

Consider `CSc1ccc(O)c(-c2nc(-c3ncccc3C)no2)c1` [Compound 294, 2-[3-(3-Methyl-pyridin-2-yl)-[1,2,4]oxadiazol-5-yl]-4-methylsulfanyl-phenol], for which the half-maximal effective concentration (EC50) turned out to be 0.2 µM.

As to `COc1cccc(O)c1-c1nc(-c2ncccc2C)no1` [Compound 241, 3-Methoxy-2-[3-(3-methyl-pyridin-2-yl)-[1,2,4]oxadiazol-5-yl]-phenol], the EC50 was more than 10 µM.

Regarding `COc1cccc(-c2nc(-c3ccc(N)cn3)no2)c1O` [Compound 251, 2-[3-(5-Amino-pyridin-2-yl)-[1,2,4]oxadiazol-5-yl]-6-methoxy-phenol], the EC50 is more than 32 µM.

Turning to `Oc1ccc(O)c(-c2nc(-c3ccc(C(F)(F)F)cn3)no2)c1` [Compound 217, 2-[3-(5-Trifluoromethyl-pyridin-2-yl)-[1,2,4]oxadiazol-5-yl]-benzene-1,4-diol], the EC50 was determined as 2.1 µM.

For `Oc1cc(OCc2ccccc2)ccc1-c1nc(-c2ccccn2)n[nH]1` [Compound 356, 5-Benzyloxy-2-(5-pyridin-2-yl-2H-[1,2,4]triazol-3-yl)-phenol], the half-maximal effective concentration (EC50) was more than 19 µM.

Consider `Oc1ccccc1-c1nc(-c2ccccn2)n[nH]1` [Compound 361, 2-(5-pyridin-2-yl-2H-[1,2,4]triazol-3-yl)-phenol], for which the EC50 is more than 19 µM.

What is called EC50 is the midpoint of the concentration-response curve.

(Values after patent US20050075375A1 (priority 2003, published 2005).)
